Reference: US7632972B2, “Compounds and methods for treatment of cancer and modulation of programmed cell death for melanoma and other cancer cells” (The Board of Trustees of the University of Illionis, priority 2003, dated 2009)

Experiments:
[1] = system: HL-60(TB)
[2] = system: U251; assay: NCI 60 cell line screen (SRB), CNS Cancer; assay type: cell-based, human
Source text: (§1) The operation of this screen utilizes 60 different human tumor cell lines, representing leukemia, melanoma and cancers of the lung, colon, brain, ovary, breast, prostate, and kidney. The aim is to prioritize for further evaluation, synthetic compounds or natural product samples showing selective growth inhibition or cell killing of particular tumor cell lines. This screen is unique in that the complexity of a 60 cell line dose response produced by a given compound results in a biological response pattern which can be utilized in pattern recognition algorithms. Using these algorithms, it is possible to assign a putative mechanism of action to a test compound, or to determine that the response pattern is unique and not similar to that of any of the standard prototype compounds included in the NCl database (see DTP Overview tab). In addition, following characterization of various cellular molecular targets in the 60 cell lines, it may be possible to select compounds most likely to interact with a specific molecular target.
(§2) The human tumor cell lines of the cancer screening panel are grown in RPMI 1640 medium containing 5% fetal bovine serum and 2 mM L-glutamine. For a typical screening experiment, cells are inoculated into 96 well microtiter plates in 100 μL at plating densities ranging from 5,000 to 40,000 cells/well depending on the doubling time of individual cell lines. After cell inoculation, the microtiter plates are incubated at 37° C., 5% CO2, 95% air and 100% relative humidity for 24 h prior to addition of experimental drugs.
(§3) After 24 h, two plates of each cell line are fixed in situ with TCA, to represent a measurement of the cell population for each cell line at the time of drug addition (Tz). Experimental drugs are solubilized in dimethyl sulfoxide at 400-fold the desired final maximum test concentration and stored frozen prior to use. At the time of drug addition, an aliquot of frozen concentrate is thawed and diluted to twice the desired final maximum test concentration with complete medium containing 50 μg/ml gentamicin. Additional four, 10-fold or ½ log serial dilutions are made to provide a total of five drug concentrations plus control. Aliquots of 100 μl of these different drug dilutions are added to the appropriate microtiter wells already containing 100 μl of medium, resulting in the required final drug concentrations.
(§4) Following drug addition, the plates are incubated for an additional 48 h at 37° C., 5% CO2, 95% air, and 100% relative humidity. For adherent cells, the assay is terminated by the addition of cold TCA. Cells are fixed in situ by the gentle addition of 50 μl of cold 50% (w/v) TCA (final concentration, 10% TCA) and incubated for 60 minutes at 4° C. The supernatant is discarded, and the plates are washed five times with tap water and air dried. Sulforhodamine B (SRB) solution (100 μl) at 0.4% (w/v) in 1% acetic acid is added to each well, and plates are incubated for 10 minutes at room temperature. After staining, unbound dye is removed by washing five times with 1% acetic acid and the plates are air dried. Bound stain is subsequently solubilized with 10 mM trizma base, and the absorbance is read on an automated plate reader at a wavelength of 515 nm. For suspension cells, the methodology is the same except that the assay is terminated by fixing settled cells at the bottom of the wells by gently adding 50 μl of 80% TCA (final concentration, 16% TCA). Using the seven absorbance measurements [time zero, (Tz), control growth, (C), and test growth in the presence of drug at the five concentration levels (Ti)], the percentage growth is calculated at each of the drug concentrations levels. Percentage growth inhibition is calculated as: [(Ti−Tz)/(C−Tz)]×100 for concentrations for which Ti>/=Tz [(Ti−Tz)/Tz]×100 for concentrations for which Ti<Tz.
(§5) Three dose response parameters are calculated for each experimental agent. […]

[3] = system: SF-295; assay: NCI 60 cell line screen (SRB), CNS Cancer; assay type: cell-based, human
Source text: as §1, §2, §3, §4, §5

[4] = system: SNB-75; assay: NCI 60 cell line screen (SRB), CNS Cancer; assay type: cell-based, human
Source text: as §1, §2, §3, §4, §5

[5] = system: IGROV1; assay: NCI 60 cell line screen (SRB), Ovarian Cancer; assay type: cell-based, human
Source text: as §1, §2, §3, §4, §5

[6] = system: OVCAR-5; assay: NCI 60 cell line screen (SRB), Ovarian Cancer; assay type: cell-based, human
Source text: as §1, §2, §3, §4, §5

[7] = system: OVCAR-3; assay: NCI 60 cell line screen (SRB), Ovarian Cancer; assay type: cell-based, human
Source text: as §1, §2, §3, §4, §5

[8] = system: SK-OV-3; assay: NCI 60 cell line screen (SRB), Ovarian Cancer; assay type: cell-based, human
Source text: as §1, §2, §3, §4, §5

[9] = system: OVCAR-4; assay: NCI 60 cell line screen (SRB), Ovarian Cancer; assay type: cell-based, human
Source text: as §1, §2, §3, §4, §5

[10] = system: OVCAR-8; assay: NCI 60 cell line screen (SRB), Ovarian Cancer; assay type: cell-based, human
Source text: as §1, §2, §3, §4, §5

For COc1cccc(CCNC(=O)CC(c2ccccc2)(c2ccccc2)c2ccccc2)c1 [Compound Z3], the GI50 [1] was 17.5 µM, the TGI [1] was >1.00E−04 and the CC50 ([1]; read-out: LC50) was > 100 µM. The GI50 ([2]; U251) was 4.85 µM, the TGI ([2]; U251) was 5.56E−05 and the “Percent Growth” value ([2]; U251, Log10 Concentration −4.0) was −10%. The “Percent Growth” value ([2]; U251, Log10 Concentration −5.0) was 29%, the “Percent Growth” value ([2]; U251, Log10 Concentration −6.0) was 96% and the “Percent Growth” value ([2]; U251, Log10 Concentration −7.0) was 107%. The “Percent Growth” value ([2]; U251, Log10 Concentration −8.0) was 99%, the CC50 ([2]; U251, read-out: LC50 (the source's name)) was > 100 µM and the GI50 ([3]; SF-295) was 4.36 µM. The TGI ([3]; SF-295) was >1.00E−04, the “Percent Growth” value ([3]; SF-295, Log10 Concentration −4.0) was 15% and the “Percent Growth” value ([3]; SF-295, Log10 Concentration −5.0) was 27%. The “Percent Growth” value ([3]; SF-295, Log10 Concentration −6.0) was 91%, the “Percent Growth” value ([3]; SF-295, Log10 Concentration −7.0) was 113% and the “Percent Growth” value ([3]; SF-295, Log10 Concentration −8.0) was 100%. For the same molecule, the CC50 ([3]; SF-295, read-out: LC50 (the source's name)) was > 100 µM, the GI50 ([4]; SNB-75) was > 100 µM and the TGI ([4]; SNB-75) was >1.00E−04. For the same molecule, the “Percent Growth” value ([4]; SNB-75, Log10 Concentration −4.0) was 96%, the “Percent Growth” value ([4]; SNB-75, Log10 Concentration −5.0) was 118% and the “Percent Growth” value ([4]; SNB-75, Log10 Concentration −6.0) was 113%. The “Percent Growth” value ([4]; SNB-75, Log10 Concentration −7.0) was 117%, the “Percent Growth” value ([4]; SNB-75, Log10 Concentration −8.0) was 94% and the CC50 ([4]; SNB-75, read-out: LC50 (the source's name)) was > 100 µM. For the same molecule, the TGI ([5]; IGROV1) was >1.00E−04, the “Percent Growth” value ([5]; IGROV1, Log10 Concentration −4.0) was 10% and the “Percent Growth” value ([5]; IGROV1, Log10 Concentration −5.0) was 22%. For the same molecule, the “Percent Growth” value ([5]; IGROV1, Log10 Concentration −6.0) was 23%, the “Percent Growth” value ([5]; IGROV1, Log10 Concentration −7.0) was 63% and the “Percent Growth” value ([5]; IGROV1, Log10 Concentration −8.0) was 29%. The CC50 ([5]; IGROV1, read-out: LC50 (the source's name)) was > 100 µM, the GI50 ([6]; OVCAR-5) was 11.7 µM and the TGI ([6]; OVCAR-5) was >1.00E−04. For the same molecule, the “Percent Growth” value ([6]; OVCAR-5, Log10 Concentration −4.0) was 15%, the “Percent Growth” value ([6]; OVCAR-5, Log10 Concentration −5.0) was 53% and the “Percent Growth” value ([6]; OVCAR-5, Log10 Concentration −6.0) was 83%. For the same molecule, the “Percent Growth” value ([6]; OVCAR-5, Log10 Concentration −7.0) was 87%, the “Percent Growth” value ([6]; OVCAR-5, Log10 Concentration −8.0) was 90% and the CC50 ([6]; OVCAR-5, read-out: LC50 (the source's name)) was > 100 µM. The GI50 ([7]; OVCAR-3) was 4.77 µM, the TGI ([7]; OVCAR-3) was >1.00E−04 and the “Percent Growth” value ([7]; OVCAR-3, Log10 Concentration −4.0) was 19%. For the same molecule, the “Percent Growth” value ([7]; OVCAR-3, Log10 Concentration −5.0) was 40%, the “Percent Growth” value ([7]; OVCAR-3, Log10 Concentration −6.0) was 71% and the “Percent Growth” value ([7]; OVCAR-3, Log10 Concentration −7.0) was 102%. For the same molecule, the “Percent Growth” value ([7]; OVCAR-3, Log10 Concentration −8.0) was 90%, the CC50 ([7]; OVCAR-3, read-out: LC50 (the source's name)) was > 100 µM and the GI50 ([8]; SK-OV-3) was > 100 µM. The TGI ([8]; SK-OV-3) was >1.00E−04, the “Percent Growth” value ([8]; SK-OV-3, Log10 Concentration −4.0) was 87% and the “Percent Growth” value ([8]; SK-OV-3, Log10 Concentration −5.0) was 84%. The “Percent Growth” value ([8]; SK-OV-3, Log10 Concentration −6.0) was 97%, the “Percent Growth” value ([8]; SK-OV-3, Log10 Concentration −7.0) was 98% and the “Percent Growth” value ([8]; SK-OV-3, Log10 Concentration −8.0) was 92%. For the same molecule, the CC50 ([8]; SK-OV-3, read-out: LC50 (the source's name)) was > 100 µM, the GI50 ([9]; OVCAR-4) was > 100 µM and the TGI ([9]; OVCAR-4) was >1.00E−04. For the same molecule, the “Percent Growth” value ([9]; OVCAR-4, Log10 Concentration −4.0) was 92%, the “Percent Growth” value ([9]; OVCAR-4, Log10 Concentration −5.0) was 80% and the “Percent Growth” value ([9]; OVCAR-4, Log10 Concentration −6.0) was 82%. The “Percent Growth” value ([9]; OVCAR-4, Log10 Concentration −7.0) was 106%, the “Percent Growth” value ([9]; OVCAR-4, Log10 Concentration −8.0) was 92% and the CC50 ([9]; OVCAR-4, read-out: LC50 (the source's name)) was > 100 µM. For the same molecule, the GI50 ([10]; OVCAR-8) was 4.98 µM, the TGI ([10]; OVCAR-8) was 4.77E−05 and the “Percent Growth” value ([10]; OVCAR-8, Log10 Concentration −4.0) was −16%. For the same molecule, the “Percent Growth” value ([10]; OVCAR-8, Log10 Concentration −5.0) was 33%, the “Percent Growth” value ([10]; OVCAR-8, Log10 Concentration −6.0) was 88% and the “Percent Growth” value ([10]; OVCAR-8, Log10 Concentration −7.0) was 117%. The “Percent Growth” value ([10]; OVCAR-8, Log10 Concentration −8.0) was 116% and the CC50 ([10]; OVCAR-8, read-out: LC50 (the source's name)) was > 100 µM.
